Measured values published in patent US20220397566A1, “GAMMA-SECRETASE STABILIZING COMPOUND SCREENING ASSAY” (VIB VZW, priority 2019, published 2022).

Tested on: LAMP1-positive organelles
Experiment: Size area of LAMP1-positive organelles per cell
Format: cell-based, mouse
Details: 1 μM, 16 hrs
Experimental: FIG. 1. DAPT relocates PSEN1/g-secretase to late endosomes. (A) PSEN1 and PSEN2 double knock-out (dKO) MEFs stably expressing GFP-PSEN1 or GFP-PSEN2 were treated for 16 h with 1 μM of DAPT or DMSO and immunostained for GFP (green) and LAMP1 antibodies (red). (B) Quantification of (A) using Mander's coefficient. (C) Ratio of GFP intensity in LAMP1-positive structures over total GFP intensity in the cell, normalized to DMSO-treated cells (control=Ctrl). (D) Quantification of size area of LAMP1-positive organelles per cell showing no significant differences between DMSO and DAPT-treated cells. (E) PSEN1, PSEN2 and NCT triple KO MEFs stably rescued with NCT-SNAP and GFP-PSEN1 were treated for 16 h with 1 μM of DAPT or DMSO (Ctrl). […] All graphs show the median with 95% confidence interval (n=3, ˜20 cells per experiments; p-values are calculated using Mann-Whitney test; ns means non-significant).
Cells were plated on glass coverslips, transfected 24 h later and processed for indirect immunolabeling the next day (Sannerud et al 2011 Proc Natl Acad Sci USA 108). […] ImageJ software with the plugin JACoP (Bolte and Cordelieres 2006 J Microsc 224) was used for signal overlap quantification (Mander's coefficient). Images were acquired with identical settings and regions of interest (ROI) covering whole cells were used for quantification.

With C[C@H](NC(=O)Cc1cc(F)cc(F)c1)C(=O)N[C@H](C(=O)OC(C)(C)C)c1ccccc1 [DAPT, N—[N-(3,5-difluorophenacetyl)-L-alanyl]-S-phenylglycine t-butyl ester] as the compound, how does the “total size area of LAMP1-positive organelles” value read?
Its value is “no measurable effect”.
